Among the test systems are RXF 393 renal; ACHN renal; EKVX NSCLC; SR leukemia; MDA-MB-435; CAKI-1 renal; HS 578T breast; IGROV1 ovarian; OVCAR-5 ovarian; KM12 colon.
Common to all, as to experiment: NCI anticancer screen, dose series, 48 h

Structures are written as SMILES.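 96-well plates; 48 h exposure; 5 concentrations. Endpoints by linear interpolation between flanking doses. Not reached: highest tested concentration assigned. The concentration for 50% growth inhibition is given as GI50. TGI: total growth inhibition.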 Bounds are passed on as bounds.

As for `COc1cc(/C=N/Nc2ncnc3c2cnn3-c2ccccc2)ccc1O`, the GI50 with RXF 393 renal was 4.33 µM; with ACHN renal, 7.93 µM; in the experiment with EKVX NSCLC, over 25 µM; with SR leukemia it was 6.09 µM; in the experiment with MDA-MB-435, 1.41 µM; in the experiment on CAKI-1 renal it was 2.52 µM. Also, the GI50 is 2.18 µM in the experiment on HS 578T breast, 5.03 µM with IGROV1 ovarian, over 25 µM in the experiment with OVCAR-5 ovarian and 1.64 µM with KM12 colon. The TGI is over 25 µM in the experiment on RXF 393 renal; over 25 µM with ACHN renal; over 25 µM in the experiment on EKVX NSCLC; over 25 µM in the experiment with SR leukemia; over 15.7 µM with MDA-MB-435; over 25 µM in the experiment with CAKI-1 renal. The TGI was over 25 µM in the experiment on HS 578T breast, over 22.8 µM in the experiment on IGROV1 ovarian, over 25 µM in the experiment on OVCAR-5 ovarian and over 25 µM with KM12 colon.

`Cc1cc2c(cc1Cl)S/C(=C/C(=O)O)C(Nc1ccc3ncsc3c1)=NS2(=O)=O`: the GI50 with RXF 393 renal was 19.8 µM; in the experiment on ACHN renal, over 52.6 µM; in the experiment on EKVX NSCLC it was over 16.9 µM; in the experiment with SR leukemia it was 14.6 µM; in the experiment on MDA-MB-435, over 33.5 µM; in the experiment on CAKI-1 renal, 22.1 µM. For the same compound, the GI50 in the experiment with HS 578T breast is 9.81 µM; in the experiment with IGROV1 ovarian, 31.9 µM; with OVCAR-5 ovarian, 23.4 µM; in the experiment on KM12 colon it was 27.5 µM. In addition, the TGI in the experiment with RXF 393 renal was over 100 µM; in the experiment with ACHN renal, over 68 µM; in the experiment on EKVX NSCLC, over 52.8 µM; in the experiment with SR leukemia, 77.9 µM; with MDA-MB-435 it was over 53.4 µM; with CAKI-1 renal, over 48.9 µM. Besides, the TGI in the experiment on HS 578T breast was over 40.9 µM; in the experiment with IGROV1 ovarian, over 100 µM; with OVCAR-5 ovarian, over 42.4 µM; in the experiment on KM12 colon it was over 48 µM.

Turning to `Nc1nc([Se])c2ncn(C3OC(CO)C(O)C3O)c2n1` (stereo not given), the GI50 is over 100 µM with RXF 393 renal; 20.8 µM in the experiment with ACHN renal; 37.6 µM in the experiment with EKVX NSCLC; 2.88 µM with SR leukemia; 15.1 µM in the experiment on MDA-MB-435; 22.5 µM in the experiment on CAKI-1 renal. For the same compound, the GI50 is 4.71 µM in the experiment on HS 578T breast, 25.9 µM in the experiment with IGROV1 ovarian, 8.24 µM in the experiment with OVCAR-5 ovarian and 10.2 µM with KM12 colon. Moreover, the TGI in the experiment with RXF 393 renal, in the experiment with ACHN renal, in the experiment with EKVX NSCLC, in the experiment with SR leukemia, in the experiment with MDA-MB-435 and with CAKI-1 renal was over 100 µM each time. Also, the TGI in the experiment with HS 578T breast is over 100 µM; with IGROV1 ovarian it was over 100 µM; in the experiment on OVCAR-5 ovarian, over 100 µM; in the experiment with KM12 colon, 54.9 µM.

As for `O=C(Nc1ccccc1)Nc1ccc2cc3ccc(NC(=O)Nc4ccccc4)cc3nc2c1`, the GI50 with RXF 393 renal is 1.49 µM; in the experiment on ACHN renal, 3.57 µM; in the experiment on EKVX NSCLC, 4.29 µM; with SR leukemia, 0.287 µM; with MDA-MB-435, 1.68 µM; in the experiment with CAKI-1 renal, 2.95 µM. The GI50 is 1.53 µM in the experiment with HS 578T breast, 1.66 µM in the experiment on IGROV1 ovarian, 3.1 µM with OVCAR-5 ovarian and 1.47 µM in the experiment with KM12 colon. Moreover, the TGI with RXF 393 renal was 3.61 µM; with ACHN renal, over 100 µM; in the experiment on EKVX NSCLC it was over 100 µM; in the experiment on SR leukemia, 0.734 µM; with MDA-MB-435, 3.15 µM; in the experiment on CAKI-1 renal, 12.3 µM. Besides, the TGI with HS 578T breast is 3.47 µM; with IGROV1 ovarian it was 4.3 µM; in the experiment with OVCAR-5 ovarian it was over 100 µM; in the experiment with KM12 colon it was 4.07 µM.

For the compound `CCc1ccc(CCC(=O)Nc2ncc(Cc3ccc(Cl)cc3)s2)o1`, the GI50 with RXF 393 renal was 0.226 µM; in the experiment on ACHN renal it was 0.66 µM; with EKVX NSCLC, 0.527 µM; with SR leukemia, 0.419 µM; in the experiment on MDA-MB-435, 0.147 µM; with CAKI-1 renal, 0.451 µM. The GI50 is 0.3 µM in the experiment on HS 578T breast, 0.549 µM in the experiment on IGROV1 ovarian, 0.615 µM in the experiment on OVCAR-5 ovarian and 0.377 µM in the experiment with KM12 colon. Further, the TGI in the experiment on RXF 393 renal is 0.675 µM; in the experiment with ACHN renal, over 100 µM; with EKVX NSCLC it was over 100 µM; with SR leukemia, over 100 µM; in the experiment on MDA-MB-435, 0.366 µM; in the experiment with CAKI-1 renal, over 100 µM. In addition, the TGI is 27.9 µM in the experiment with HS 578T breast, over 100 µM in the experiment with IGROV1 ovarian, over 100 µM with OVCAR-5 ovarian and over 100 µM in the experiment on KM12 colon.

Consider `O=S(=O)(NNc1ccccc1)c1ccccc1`, for which the TGI amounted to 38.5 µM in the experiment on RXF 393 renal; 15.8 µM in the experiment with ACHN renal; 31.9 µM in the experiment on EKVX NSCLC; 53.1 µM in the experiment on SR leukemia; 21.3 µM with MDA-MB-435; 13.5 µM in the experiment on CAKI-1 renal. Further, the TGI in the experiment with HS 578T breast is over 100 µM; in the experiment with IGROV1 ovarian it was 32.7 µM; with OVCAR-5 ovarian, over 100 µM; with KM12 colon it was 18.1 µM.

Regarding `COc1ccc(C/C(=C(\C)c2ccc(OCCN3CCCC3)cc2)c2ccc(OCCN3CCCC3)cc2)cc1`, the GI50 with RXF 393 renal is 1.48 µM; in the experiment with ACHN renal, 1.74 µM; in the experiment with EKVX NSCLC, 2.21 µM; in the experiment on SR leukemia it was 0.565 µM; with MDA-MB-435, 1.7 µM; in the experiment on CAKI-1 renal it was 1.66 µM. The GI50 with HS 578T breast is 2.17 µM; with IGROV1 ovarian it was 1.87 µM; in the experiment with OVCAR-5 ovarian, 1.8 µM; in the experiment with KM12 colon it was 1.79 µM. In addition, the TGI in the experiment with RXF 393 renal was 2.88 µM; with ACHN renal, 3.12 µM; in the experiment with EKVX NSCLC, 5.89 µM; with SR leukemia, 3.47 µM; in the experiment with MDA-MB-435 it was 3.24 µM; with CAKI-1 renal it was 3.09 µM. The TGI is 4.83 µM in the experiment with HS 578T breast, 3.97 µM in the experiment with IGROV1 ovarian, 3.72 µM in the experiment with OVCAR-5 ovarian and 3.52 µM with KM12 colon.

In the case of `CCN(CC)CCCNc1cc(OC)cc2nc3cc(Cl)ccc3nc12`, the GI50 with RXF 393 renal is 1.25 µM; with ACHN renal it was 1.33 µM; in the experiment on EKVX NSCLC, 3.04 µM; in the experiment with SR leukemia, 0.633 µM; with MDA-MB-435, 1.87 µM; with CAKI-1 renal it was 1.75 µM. Moreover, the GI50 in the experiment with HS 578T breast was 2.53 µM; in the experiment with IGROV1 ovarian, 1.96 µM; in the experiment with OVCAR-5 ovarian it was 3.56 µM; in the experiment with KM12 colon, 1.3 µM. In addition, the TGI with RXF 393 renal turned out to be 2.63 µM; in the experiment with ACHN renal, 11.8 µM; with EKVX NSCLC it was 14.1 µM; in the experiment on SR leukemia, 18 µM; in the experiment with MDA-MB-435 it was 3.97 µM; with CAKI-1 renal it was 5.03 µM. Further, the TGI in the experiment on HS 578T breast worked out at 9.48 µM; in the experiment with IGROV1 ovarian, 6.78 µM; with OVCAR-5 ovarian it was 16.3 µM; with KM12 colon, 3.43 µM.
